Calls of active or inactive are those of the source. The rule behind the calls is not given here. Square brackets hold non-standard residues; d marks the D form. Peptide text beside a SMILES is read from it. Pro(4-sila,4,4-Me2) = C[Si]1(C)CN[C@H](C(=O)O)C1; Ala(SiMe3) = C[Si](C)(C)C[C@H](N)C(=O)O; NMeR = CN[C@@H](CCCNC(=N)N)C(=O)O; hLys = NCCCCC[C@H](N)C(=O)O
Legend:
[1] = Half life in rat plasma at 0.156 mM by UPLC/MS method; type: ADME, cell-free
[2] = tested on: Rattus norvegicus; test: Reduction in arterial blood pressure in Sprague-Dawley rat at 0.1 mg/kg, iv measured over 4 mins; type: functional
[3] = molecular target: T1, Neurotensin receptor type 1 (Homo sapiens, UniProt P30989); test: Displacement of [125I]-Tyr3-NT from human NTS1 receptor expressed in CHOK1 cell membranes incubated for 30 mins by gamma-counting based competitive radioligand binding assay; design: species or system CHO-K1
T1 sequence (P30989 whole entry): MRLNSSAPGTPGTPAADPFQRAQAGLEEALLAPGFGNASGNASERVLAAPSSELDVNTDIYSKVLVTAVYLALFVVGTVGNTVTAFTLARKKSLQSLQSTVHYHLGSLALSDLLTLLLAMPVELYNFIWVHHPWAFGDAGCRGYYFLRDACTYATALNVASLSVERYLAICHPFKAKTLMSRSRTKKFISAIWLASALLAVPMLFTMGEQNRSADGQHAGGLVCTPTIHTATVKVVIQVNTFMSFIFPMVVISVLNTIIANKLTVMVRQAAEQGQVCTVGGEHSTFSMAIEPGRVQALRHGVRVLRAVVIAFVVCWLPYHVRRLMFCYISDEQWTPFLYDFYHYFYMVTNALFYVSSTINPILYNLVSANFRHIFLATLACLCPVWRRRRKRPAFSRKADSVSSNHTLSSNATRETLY

[4] = molecular target: Neurotensin receptor type 2 (Homo sapiens, UniProt O95665); test: Displacement of [125I]-Tyr3-NT from human NTS2 receptor expressed in 1321N1 cell membranes incubated for 30 mins by gamma-counting based competitive radioligand binding assay
Sequence of Neurotensin receptor type 2 (O95665 whole entry): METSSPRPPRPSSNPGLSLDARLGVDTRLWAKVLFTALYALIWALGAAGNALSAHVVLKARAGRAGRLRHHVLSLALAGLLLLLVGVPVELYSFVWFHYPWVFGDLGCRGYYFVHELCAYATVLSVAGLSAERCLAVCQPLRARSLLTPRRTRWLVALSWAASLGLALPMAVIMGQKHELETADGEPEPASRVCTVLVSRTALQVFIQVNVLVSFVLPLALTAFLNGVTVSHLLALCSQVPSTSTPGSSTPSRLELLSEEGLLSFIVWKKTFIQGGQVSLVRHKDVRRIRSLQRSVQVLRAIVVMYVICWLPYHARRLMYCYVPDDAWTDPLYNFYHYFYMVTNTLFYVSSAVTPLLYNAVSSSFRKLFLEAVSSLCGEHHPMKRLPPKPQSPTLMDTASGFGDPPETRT

[5] = molecular target: T1, Neurotensin receptor type 1; test: Agonist activity at human NTS1 receptor expressed in CHOK1 cells co-expressing Galphaq-RlucII(121)/Gbeta1/GFP10-Ggamma1 assessed as Galpha-q stimulation incubated for 15 mins by BRET assay; type: cell-based, CHO-K1
[6] = molecular target: T1, Neurotensin receptor type 1; test: Agonist activity at human NTS1 receptor expressed in CHOK1 cells co-expressing hNTS1-GFP10/RlucII-beta-arrestin 2 assessed as beta-arrestin2 recruitment incubated for 15 mins by BRET assay; type: cell-based, CHO-K1
[7] = molecular target: Neurotensin receptor type 1 (Rattus norvegicus, UniProt P20789); test: Agonist activity at […] NTS1 in Sprague-Dawley rat ileum assessed as inhibition of carbachol-induced contraction; type: tissue-based
Sequence of Neurotensin receptor type 1 (Rattus norvegicus, UniProt P20789) (P20789 whole entry): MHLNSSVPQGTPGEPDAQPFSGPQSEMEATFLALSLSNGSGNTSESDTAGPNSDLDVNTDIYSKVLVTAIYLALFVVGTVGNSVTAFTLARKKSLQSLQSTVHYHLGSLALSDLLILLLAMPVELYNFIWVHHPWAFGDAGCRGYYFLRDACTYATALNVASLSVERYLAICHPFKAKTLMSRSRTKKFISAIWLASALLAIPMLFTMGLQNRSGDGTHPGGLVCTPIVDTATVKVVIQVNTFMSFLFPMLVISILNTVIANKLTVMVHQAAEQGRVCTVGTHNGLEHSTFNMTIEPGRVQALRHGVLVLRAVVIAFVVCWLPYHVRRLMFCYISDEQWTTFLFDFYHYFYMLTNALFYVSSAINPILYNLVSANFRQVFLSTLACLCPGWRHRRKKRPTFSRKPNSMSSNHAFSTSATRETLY

[8] = tested on: Rattus norvegicus; test: Reduction in arterial blood pressure in Sprague-Dawley rat assessed as hypotensive effect during pressor phase returning to baseline saline values within <1 mins at 0.1 mg/kg, iv measured over 4 mins; type: functional, organism-based
[9] = tested on: Rattus norvegicus; test: Reduction in arterial blood pressure in Sprague-Dawley rat assessed as sustained and pronounced hypotensive phase at 0.1 mg/kg, iv measured over 4 mins; type: functional, organism-based
[10] = tested on: Rattus norvegicus; test: Analgesic activity in Sprague-Dawley rat assessed as increase in response latency to thermal noxious stimulus at 30 ug/kg, it measured every 10 mins for up to 1 hr post dose by tail immersion test; type: functional, organism-based
[11] = tested on: Rattus norvegicus; test: Analgesic activity in Sprague-Dawley rat assessed as maximal possible effect for reduction in sensitivity to heat stimulation at 30 ug/kg, it measured every 10 mins for up to 1 hr post dose by tail immersion test; type: functional; design: scale not given: the % may be the effect or the level left
[12] = tested on: Rattus norvegicus; test: Analgesic activity in Sprague-Dawley rat model of formalin-induced persistent tonic pain model assessed as reduction in weighted pain score during acute phase at 30 ug/kg, it by formalin test; type: functional, organism-based
[13] = tested on: Rattus norvegicus; test: Analgesic activity in Sprague-Dawley rat model of formalin-induced persistent tonic pain model assessed as reduction in weighted pain score during inflammatory phase at 30 ug/kg, it by formalin test; type: functional, organism-based
[14] = species on record: Rattus norvegicus; test: Analgesic activity in rat by tail flick test; type: functional

Structure (SMILES)	half-life at 156 µM [1] [min]	IC50 [3] [nM]	IC50 [4] [nM]	EC50 [5] [nM]	EC50 [6] [nM]	EC50 [7] [nM]	ED50 [14] [nmol]	other results
CC[C@H](C)[C@H](NC(=O)[C@H](Cc1ccc(O)cc1)NC(=O)[C@@H]1CCCN1C(=O)[C@H](CCCNC(=N)N)NC(=O)[C@@H](N)CCCNC(=N)N)C(=O)N[C@@H](CC(C)C)C(=O)O	1.95							Activity [2]: 30 mmHg
CC[C@H](C)[C@H](NC(=O)[C@H](Cc1ccc(O)cc1)NC(=O)[C@@H]1CCCN1C(=O)[C@H](CCCCN)NC(=O)[C@@H](N)CCCCN)C(=O)N[C@@H](C[Si](C)(C)C)C(=O)O (H-KKPYI[Ala(SiMe3)]-OH)	1.33	0.02	0.26	1.51	1.49	1.41		Activity [2]: Active; Activity [8]: Active; Activity [9]: Active; Activity [10]: Active; Activity [11]: 40%; Activity [12]: Active; Activity [13]: Active
CC(C)C[C@H](NC(=O)[C@H](C[Si](C)(C)C)NC(=O)[C@H](Cc1ccc(O)cc1)NC(=O)[C@@H]1CCCN1C(=O)[C@H](CCCCN)NC(=O)[C@@H](N)CCCCN)C(=O)O (H-KKPY[Ala(SiMe3)]L-OH)	2.4	93.8	405	169	26.6	> 10000		
C[Si](C)(C)C[C@H](NC(=O)[C@H](C[Si](C)(C)C)NC(=O)[C@H](Cc1ccc(O)cc1)NC(=O)[C@@H]1CCCN1C(=O)[C@H](CCCCN)NC(=O)[C@@H](N)CCCCN)C(=O)O (H-KKPY[Ala(SiMe3)][Ala(SiMe3)]-OH)	2.83	15.4	28.9	11	0.34	22.5		
CN[C@@H](CCCNC(=N)N)C(=O)N[C@@H](CCCCN)C(=O)N1CCC[C@H]1C(=O)N[C@@H](Cc1ccc(O)cc1)C(=O)N[C@@H](C[Si](C)(C)C)C(=O)N[C@@H](CC(C)C)C(=O)O (H-[NMeR]KPY[Ala(SiMe3)]L-OH)	> 120	246	29.7	204	4.19	> 10000		
CC(C)C[C@H](NC(=O)[C@H](C[Si](C)(C)C)NC(=O)[C@H](Cc1ccc(O)cc1)NC(=O)[C@@H]1C[Si](C)(C)CN1C(=O)[C@H](CCCCN)NC(=O)[C@@H](N)CCCCCN)C(=O)O (H-[hLys]K[Pro(4-sila,4,4-Me2)]Y[Ala(SiMe3)]L-OH)	3.52	968	1420	> 10000	> 1000	> 10000		
CO[C@@]12CC[C@@]3(C[C@@H]1[C@](C)(O)C(C)(C)C)[C@H]1Cc4ccc(O)c5c4[C@@]3(CCN1CC1CC1)[C@H]2O5 [BUPRENORPHINE]							4	
CN1CC[C@]23c4c5ccc(O)c4O[C@H]2C(=O)CC[C@H]3[C@H]1C5 [HYDROMORPHONE]							78	
CN1CC[C@]23c4c5ccc(O)c4O[C@H]2[C@@H](O)C=C[C@H]3[C@H]1C5 [MORPHINE]							7.4	
